From publication PMC4613797 (Journal of medicinal chemistry, 2015)

Legend:
[1] = system: IFNγ production by mouse splenocytes; assay: IFNγ inhibition assay in mouse splenocytes; format: cell-based; conditions: 100 nM, versus control
Mouse CYP27B1 = molecular target: T1, Mouse CYP27B1 (Mus musculus, UniProt O35084); assay: Kinetics of 1α-hydroxylation; format: in vitro ADME; conditions: for Km: 1α-hydroxylation by mouse CYP27B1, phospholipid vesicles, 2 min, ±SE of the curve fit
T1 sequence (O35084 1-507): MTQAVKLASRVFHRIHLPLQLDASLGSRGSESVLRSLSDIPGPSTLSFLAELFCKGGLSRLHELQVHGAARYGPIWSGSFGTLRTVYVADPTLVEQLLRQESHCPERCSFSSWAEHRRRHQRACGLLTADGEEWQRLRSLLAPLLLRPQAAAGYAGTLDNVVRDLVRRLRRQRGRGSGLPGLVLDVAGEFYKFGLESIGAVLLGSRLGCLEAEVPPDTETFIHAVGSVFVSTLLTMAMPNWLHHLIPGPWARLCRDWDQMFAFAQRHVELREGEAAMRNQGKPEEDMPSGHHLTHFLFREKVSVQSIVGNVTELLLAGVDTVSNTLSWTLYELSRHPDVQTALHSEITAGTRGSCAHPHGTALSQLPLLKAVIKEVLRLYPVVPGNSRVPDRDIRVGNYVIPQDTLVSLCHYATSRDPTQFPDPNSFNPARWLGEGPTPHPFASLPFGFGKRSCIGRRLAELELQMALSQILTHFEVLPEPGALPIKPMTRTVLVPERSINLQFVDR

vitamin D receptor (VDR) [2] = assay: Lentiviral VDRE luciferase reporter assay in Caco-2 cells; format: cell-based
vitamin D receptor (VDR) [3] = assay: Lentiviral VDRE luciferase reporter assay in HaCaT cells; format: cell-based, human
SKMEL 188 melanoma cells = SKMEL 188 melanoma cells ref 6; cited from earlier work
[4] = mice, up to a dose of 60 µg/kg ref 18, 19; cited from earlier work
[5] = Homo sapiens, Caco-2, 24 h, read-out: VDRE activation (EC50, nM) Caco-2, Caco-2, VDRE-luciferase, 24 h
[6] = read-out: VDRE activation (EC50, nM) Caco-2, Caco-2, VDRE-luciferase, 24 h
[7] = Homo sapiens, 24 h, read-out: VDRE activation (EC50, nM) HaCaT, HaCaT, VDRE-luciferase, 24 h
[8] = read-out: VDRE activation (EC50, nM) HaCaT, VDRE-luciferase, 24 h

| EC50 (vitamin D receptor (VDR) [2]; [5]) | EC50 (vitamin D receptor (VDR) [2]; [6]) | kcat, fold higher than that for the 24S isomer (Mouse CYP27B1; mouse CYP27B1, versus 20S,24S(OH)2D3) | catalytic efficiency (kcat/Km), fold higher than 20S,24S(OH)2D3 (Mouse CYP27B1; mouse CYP27B1, versus 20S,24S(OH)2D3, listed as 20S,24R(OH)2D3) | SMILES | effect on production of IFNγ by splenocytes (in words) [1] | Km (Mouse CYP27B1) | EC50 (vitamin D receptor (VDR) [3]; [7]) | EC50 (vitamin D receptor (VDR) [3]; [8]) | inhibiting colony formation, potency compared with 1,25(OH)2D3 (SKMEL 188 melanoma cells) | calcemic activity [4] |
| --- | --- | --- | --- | --- | --- | --- | --- | --- | --- | --- |
| > 1000 nM | > 1000 nM |  |  | C=C1CC[C@H](O)C/C1=C/C=C1\CCC[C@@]2(C)[C@H]1CC[C@@H]2[C@@](C)(O)CC[C@H](O)C(C)C [Compound 17b, 20S,24S-dihydroxyvitamin D3] | slightly increased production | 2.49 ± 0.59 (mmol of substrate)/(mol of phospholipid) | > 1000 nM | > 1000 nM |  |  |
| > 1000 nM | > 1000 nM | 18 fold | 5 fold | C=C1CC[C@H](O)C/C1=C/C=C1\CCC[C@@]2(C)[C@H]1CC[C@@H]2[C@@](C)(O)CC[C@@H](O)C(C)C [Compound 17a, 20S,24R-dihydroxyvitamin D3] |  | 7.99 ± 4.01 (mmol of substrate)/(mol of phospholipid) | > 1000 nM | > 1000 nM | more potent than 1,25(OH)2D3 |  |
|  |  |  |  | C=C1CC[C@H](O)C/C1=C/C=C1\CCC[C@@]2(C)[C@H]1CC[C@@H]2[C@@](C)(O)CCCC(C)C [20S(OH)D3, 20S-hydroxyvitamin D3] |  |  |  |  |  | noncalcemic |
